Values quoted from earlier work as cited in patent US20250134829A1, “LOW-DOSE, STABLE-RELEASE TRANSDERMAL PREPARATION AND PATCH, AND METHOD FOR THEIR PRODUCTION” (PÉCSI TUDOMÁNYEGYETEM, priority 2022, published 2025).

How the values were obtained:
[1] = test system: capsaicin-sensitive sensory nerve endings; conditions: high dose (6-8%) of capsaicin locally
[2] = test system: patients suffering from low back pain; conditions: topical nonivamide treatment

For `COc1cc(CNC(=O)CCCC/C=C/C(C)C)ccc1O` [capsaicin], the “duration of disabling of the capsaicin-sensitive sensory nerve endings (desensitization)” value [1] is listed as 2-3 months.
For `CCCCCCCCC(=O)NCc1ccc(O)c(OC)c1` [nonivamide], the “plasma level of the neuropeptide somatostatin” value [2] is given as “threefold increase”.
